In patent US6750244B2, “Compounds active at a novel site on receptor-operated calcium channels useful for treatment of neurological disorders and diseases” (NPS Pharmaceuticals, Inc., priority 1993, dated 2004):
Where two headings read alike, the source gives them in different places.

Columns and labels:
thermal nociception [1] = type: in vivo, rats
Description: In this standard assay, the thermal nociceptive stimulus was 52° C. warm water with the latency to tail flick or withdrawal taken as the endpoint.

permanent focal ischemia = assay: Permanent focal cerebral ischemia (middle cerebral artery occlusion, suture); type: in vivo, rat; conditions: 10 mg/kg i.p. immediately after onset of ischemic event; 24 hr
Description: In the second study of focal cerebral ischemia in the rat, the middle cerebral artery was permanently occluded by passing a small piece of suture thread through the carotid artery to the region of the middle cerebral artery. Core body temperature was maintained at 37° C. Compound 4, 10 mg/kg i.p. administered immediately after the onset of the ischemic event, produced a statistically significant reduction in the volume of the brain infarct (20%) recorded 24 hr later.

motor performance [2] = assay: Acute motor impairment (rotorod) in mice; conditions: Frings mice, i.c.v. injection
Description: In this assay, Frings and CF1 mice were injected with test compound and placed on a knurled rod which rotated at a speed of 6 rpm. The ability of the mice to maintain equilibrium for long periods of time was determined; those mice that were unable to maintain equilibrium on the rotorod for 1 min in each of 3 trials were considered impaired.

temporary focal ischemia = assay: Temporary focal cerebral ischemia (middle cerebral artery occlusion, suture withdrawn after 2 hr); type: in vivo, rat; conditions: 10 mg/kg i.p. immediately after onset of ischemic event; 72 hr
Description: In a fourth model of focal cerebral ischemia in the rat, the middle cerebral artery was temporarily occluded by passing a small piece of suture thread through the carotid artery to the region of the middle cerebral artery. The suture thread was withdrawn after an ischemic period of 2 hr. Core body temperature was maintained at 37° C. […]

NMDA receptor [3] = assay: Inhibition of NMDA/glycine-induced increases in intracellular calcium in cultured rat cerebellar granule cells (RCGC); type: cell-based
thermal nociception [4] = type: in vivo, rats; remark: listed apart in the source
Description: In these experiments, a 52° C. hot plate was used as the nociceptive stimulus.

[5] = target: NMDA receptor-ionophore complex (site labeled by [3H]MK-801); assay: Inhibition of [3H]MK-801 binding in rat cortical/hippocampal washed membrane preparations; conditions: read-out: IC50 (μM) vs. [3H]MK-801; rat cortical/hippocampal washed membranes
NMDA receptor [6] = conditions: rat hippocampal slices
Description: Glutamate-mediated transmission at synapses of Schaffer collateral fibers and CA1 pyramidal cells was measured in slices of rat brain containing the hippocampus. This assay measures electrophysiologically the postsynaptic depolarization caused by the presynaptic release of glutamate, and can readily distinguish synaptic transmission mediated by NMDA or AMPA receptors.

[7] = system: forebrain ischemia (neuronal cell death); type: in vivo, gerbil
Description: Blood flow to the brain was interrupted for 7 minutes by clamping the carotid arteries. The test compounds were administered as a 'single dose given intraperitoneally (i.p.) 30 minutes after reinstating blood flow. During the course of these experiments, the core body temperature of the animals was maintained at 37° C. to prevent any hypothermic reaction. […]

[8] = system: acetic acid-induced writhing; type: in vivo, mice; conditions: i.p.
induction of LTP = system: induction of LTP; design: species or system rat
sound-induced seizures = assay: Sound-induced seizures in Frings mice (reflex epilepsy); type: in vivo; conditions: intracerebroventricular (i.c.v.) injection
focal ischemia = assay: Photothrombotic (Rose Bengal) model of focal cerebral ischemia; type: in vivo, rat; conditions: 10 mg/kg i.p. 30 min after the ischemic event
Source text: In a third model of focal cerebral ischemia in the rat, an ischemic infarct was produced by a photothrombotic method using the dye Rose Bengal.

[9] = system: mean arterial blood pressure; conditions: for Drop in Mean Arterial Blood Pressure / Drop in Mean Arterial Blood Pressure: duration: 1.5 μmoles/kg i.v., rats
audiogenic seizures = assay: animal or person; type: in vivo, DBA/2 mice; conditions: for EC50 in the audiogenic seizure model: mouse, in vivo
Description: (§1) The first two models used DBA/2 mice which are prone to audiogenic seizures. […] The test substances were administered 15-30 min before the convulsant stimulus.

learning [10] = assay: Morris water maze task; type: in vivo, rats; conditions: 10 mg/kg i.p. daily for 5 days
Description: In a second series of experiments, the effect of Compound 4 on learning in the Morris water maze task was evaluated. In this test, a hidden platform was placed in a fixed location in a circular steel tank, and submerged 2 cm below the surface of the water. Each rat was given 3 trials per day with a 10 min intertrial interval for 5 days. A trial was initiated by placing the rat in the water, nose facing the wall of the tank, at one of three predetermined starting locations. The order of the start location was varied daily. Learning was measured as a decrease in time required to swim to the platform. […] The animals remained on the platform for 10 sec before being removed from the tank. Ten min after the last training trial on day 5, the animals received a probe test. The platform was removed for this 1 trial task and the animals were allowed to swim for 60 sec to assess the spatial bias for the platform location. Two measures were recorded from this task: latency to first crossing the area where the platform had been, and total number of crossings. A total of 5 injections of Compound 4 were given to each rat. In the first series of experiments, Compound 4 was administered at 10 mg/kg i.p. daily for 5 days. […] In a subsequent study, six animals received 1 mg/kg i.p. for the first 4 days of training, while two animals received 5 mg/kg i.p. during this period. […]

[11] = system: formalin-induced flinching; type: in vivo, Sprague-Dawley rats
focal cerebral ischemia = assay: Middle cerebral artery occlusion, permanent, surgical ligation; type: in vivo, rat; conditions: maximally effective dose 10 mg/kg; 24 hours
Description: In the first study using this stroke model, one cerebral artery was permanently occluded by surgical ligation. The test compounds were administered 30 minutes after the occlusion by a single intraperitoneal (i.p.) injection. During the course of these experiments, the core body temperature of the animals was maintained at 37° C. to prevent any hypothermic reaction. Brains were assessed histologically for neuronal cell loss 24 hours later. Infarct volumes were calculated using the area of histological pallor from 10 slides and integrating the distance between each successive section.

learning [12] = assay: T maze learning test; conditions: i.p. 15 min before testing
Source text: In this test, rats were trained to alternate turning in a T maze for a food reward.

NMDA receptors = conditions: read-out: IC50, NMDA-induced responses; cited from earlier work
kainate receptors = conditions: read-out: IC50, kainate-induced responses; cited from earlier work
GluR1 [13] = target: T1, GluR1 (Rattus norvegicus, UniProt P19490); conditions: cited from earlier work
T1 construct: host or cells: Xenopus oocytes

NMDAR1 = target: T2, NMDAR1 (UniProt A7XY94+P35439); conditions: cited from earlier work
T2 construct: host or cells: Xenopus oocytes

GluR1+GluR2 = target: T3, GluR1+GluR2 (Rattus norvegicus, UniProt P19490+P19491, Q607R); conditions: cited from earlier work
T3 construct: host or cells: Xenopus oocytes

mouse cortical neurons = assay: cells; conditions: Cortical neurone, read-out: IC50, prevention of NMDA-induced cell death
Source text: The effective concentrations of NMDA receptor antagonists vary depending on the particular experimental conditions and the type of cell studied (cortical, hippocampal, striatal).

L-type calcium channel [14] = assay: Inhibition of KCl depolarization-induced increases in intracellular calcium in cultured rat cerebellar granule cells; type: cell-based; conditions: cerebellar granule cells
Source text: (§2) The ability of arylalkylamines to inhibit dihydropyridine-sensitive Ca^2+ channels was examined in cerebellar granule cells and a rat aortic smooth muscle cell line, A7r5 cells.

L-type calcium channel [15] = system: T4, L-type calcium channel; assay: as above; type: cell-based; conditions: read-out: L-type calcium channel: estimated IC50, KCl depolarization-induced increases in intracellular calcium; cultured rat cerebellar granule cells
T4 construct: L-type calcium channel: estimated IC50, KCl depolarization-induced increases in intracellular calcium; other: cultured
Source text: as §2

NMDA-induced seizures = assay: animal or person; conditions: Mus musculus, sc, read-out: ED50 for NMDA stimulus
Description: as §1

motor performance [16] = conditions: 20 mg/kg s.c.
Source text: In this assay, animals are placed on a wire-holed grid suspended from a rotating metal bar which can be inverted. The animals are then scored for their ability to climb to the top or hang on to the grid. […] This assay provides an index of “behavioral disruption” that may result from ataxia, loss of the righting reflex, sedation, or muscle relaxation.

GluR3 = target: T5, GluR3 (Rattus norvegicus, UniProt P19492); conditions: cited from earlier work
T5 construct: host or cells: Xenopus oocytes

GluR1 [17] = target: T1, GluR1; conditions: cited from earlier work; remark: listed apart in the source
[18] = read-out: IC50 against NMDA receptor-mediated increases in [Ca2+]i in cerebellar granule cells

T1 sequence (P19490 19-907): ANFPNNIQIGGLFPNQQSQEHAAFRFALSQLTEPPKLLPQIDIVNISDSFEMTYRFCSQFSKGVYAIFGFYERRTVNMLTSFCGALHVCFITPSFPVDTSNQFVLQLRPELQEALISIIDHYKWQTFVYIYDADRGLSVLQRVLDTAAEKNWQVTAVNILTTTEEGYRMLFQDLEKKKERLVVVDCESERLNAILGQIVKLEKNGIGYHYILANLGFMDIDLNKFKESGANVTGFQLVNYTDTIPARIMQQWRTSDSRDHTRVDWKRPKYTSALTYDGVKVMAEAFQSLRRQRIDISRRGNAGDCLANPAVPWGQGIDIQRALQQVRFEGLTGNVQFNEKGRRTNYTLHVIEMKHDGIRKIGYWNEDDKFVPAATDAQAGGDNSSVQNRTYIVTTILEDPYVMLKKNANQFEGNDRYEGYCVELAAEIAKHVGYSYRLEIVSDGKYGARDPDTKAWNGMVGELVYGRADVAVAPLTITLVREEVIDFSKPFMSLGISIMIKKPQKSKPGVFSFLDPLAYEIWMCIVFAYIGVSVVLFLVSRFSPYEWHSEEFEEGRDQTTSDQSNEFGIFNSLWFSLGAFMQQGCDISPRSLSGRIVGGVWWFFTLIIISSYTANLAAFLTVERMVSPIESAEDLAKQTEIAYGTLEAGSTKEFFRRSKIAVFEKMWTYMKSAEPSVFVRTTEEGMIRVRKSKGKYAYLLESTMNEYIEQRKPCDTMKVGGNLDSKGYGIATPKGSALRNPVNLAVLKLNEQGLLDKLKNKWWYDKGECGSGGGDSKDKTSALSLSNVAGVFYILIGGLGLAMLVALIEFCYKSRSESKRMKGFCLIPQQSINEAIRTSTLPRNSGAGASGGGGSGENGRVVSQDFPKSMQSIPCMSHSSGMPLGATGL
T2 sequence (A7XY94 25-1448, other chains not shown): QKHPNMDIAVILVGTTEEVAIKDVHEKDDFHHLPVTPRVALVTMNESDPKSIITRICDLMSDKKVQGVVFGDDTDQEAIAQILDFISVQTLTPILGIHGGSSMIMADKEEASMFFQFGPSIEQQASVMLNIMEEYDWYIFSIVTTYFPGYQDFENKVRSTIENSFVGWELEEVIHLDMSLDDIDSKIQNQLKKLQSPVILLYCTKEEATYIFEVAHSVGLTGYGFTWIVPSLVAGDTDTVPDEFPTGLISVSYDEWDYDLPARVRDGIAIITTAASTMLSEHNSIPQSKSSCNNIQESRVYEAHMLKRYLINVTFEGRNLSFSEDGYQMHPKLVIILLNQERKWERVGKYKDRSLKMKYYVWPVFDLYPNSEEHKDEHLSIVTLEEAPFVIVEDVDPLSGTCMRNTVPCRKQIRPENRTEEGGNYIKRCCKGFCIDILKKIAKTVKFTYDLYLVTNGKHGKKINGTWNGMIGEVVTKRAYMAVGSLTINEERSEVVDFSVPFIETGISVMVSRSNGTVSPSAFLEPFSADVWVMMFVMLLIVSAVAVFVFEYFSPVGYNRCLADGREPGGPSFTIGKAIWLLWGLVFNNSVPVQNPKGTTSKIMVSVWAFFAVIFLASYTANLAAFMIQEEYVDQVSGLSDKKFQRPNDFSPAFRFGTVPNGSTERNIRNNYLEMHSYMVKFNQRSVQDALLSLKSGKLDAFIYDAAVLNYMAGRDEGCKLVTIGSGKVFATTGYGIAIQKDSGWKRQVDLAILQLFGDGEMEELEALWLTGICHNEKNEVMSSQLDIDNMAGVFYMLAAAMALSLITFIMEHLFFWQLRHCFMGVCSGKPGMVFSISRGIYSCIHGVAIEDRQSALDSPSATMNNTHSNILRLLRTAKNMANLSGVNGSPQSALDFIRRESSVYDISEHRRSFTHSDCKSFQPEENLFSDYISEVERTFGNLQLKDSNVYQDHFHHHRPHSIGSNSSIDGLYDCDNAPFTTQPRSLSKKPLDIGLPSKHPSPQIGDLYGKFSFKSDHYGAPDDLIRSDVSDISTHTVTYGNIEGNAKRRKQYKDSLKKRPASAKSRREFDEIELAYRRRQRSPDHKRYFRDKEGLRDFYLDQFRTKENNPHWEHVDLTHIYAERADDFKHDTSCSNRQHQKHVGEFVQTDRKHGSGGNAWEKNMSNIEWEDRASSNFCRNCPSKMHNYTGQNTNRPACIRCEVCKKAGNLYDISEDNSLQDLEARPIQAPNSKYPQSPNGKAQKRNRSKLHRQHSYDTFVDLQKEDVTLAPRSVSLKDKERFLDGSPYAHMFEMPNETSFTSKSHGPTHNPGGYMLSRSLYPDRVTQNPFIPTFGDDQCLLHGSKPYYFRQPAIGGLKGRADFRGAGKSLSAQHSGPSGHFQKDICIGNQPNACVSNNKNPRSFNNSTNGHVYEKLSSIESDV
T5 sequence (P19492 23-888): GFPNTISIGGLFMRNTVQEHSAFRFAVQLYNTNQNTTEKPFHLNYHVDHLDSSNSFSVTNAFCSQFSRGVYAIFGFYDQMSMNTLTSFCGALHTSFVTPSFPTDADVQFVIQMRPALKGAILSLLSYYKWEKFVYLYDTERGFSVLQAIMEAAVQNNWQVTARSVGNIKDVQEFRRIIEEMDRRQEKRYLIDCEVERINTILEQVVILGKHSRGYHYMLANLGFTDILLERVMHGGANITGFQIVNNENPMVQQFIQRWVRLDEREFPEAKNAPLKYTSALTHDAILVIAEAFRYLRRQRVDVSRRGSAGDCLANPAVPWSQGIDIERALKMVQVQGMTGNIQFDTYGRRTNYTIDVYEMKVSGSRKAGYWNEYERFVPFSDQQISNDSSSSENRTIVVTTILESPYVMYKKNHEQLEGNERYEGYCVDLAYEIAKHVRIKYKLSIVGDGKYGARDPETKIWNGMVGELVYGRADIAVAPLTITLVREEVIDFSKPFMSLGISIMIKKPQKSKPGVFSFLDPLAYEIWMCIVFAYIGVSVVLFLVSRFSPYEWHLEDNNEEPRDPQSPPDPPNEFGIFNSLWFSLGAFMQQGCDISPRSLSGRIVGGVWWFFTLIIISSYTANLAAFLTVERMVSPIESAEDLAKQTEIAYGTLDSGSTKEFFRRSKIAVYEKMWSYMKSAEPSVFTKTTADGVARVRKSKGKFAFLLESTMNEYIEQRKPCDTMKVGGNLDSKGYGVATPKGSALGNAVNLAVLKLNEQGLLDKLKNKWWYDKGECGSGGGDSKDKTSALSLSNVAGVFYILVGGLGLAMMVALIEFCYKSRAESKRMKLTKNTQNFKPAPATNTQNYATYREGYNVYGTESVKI
T3 sequence (P19490 19-907): as the sequence (P19490 19-907) above
T3 sequence (P19491 22-883 Q607R): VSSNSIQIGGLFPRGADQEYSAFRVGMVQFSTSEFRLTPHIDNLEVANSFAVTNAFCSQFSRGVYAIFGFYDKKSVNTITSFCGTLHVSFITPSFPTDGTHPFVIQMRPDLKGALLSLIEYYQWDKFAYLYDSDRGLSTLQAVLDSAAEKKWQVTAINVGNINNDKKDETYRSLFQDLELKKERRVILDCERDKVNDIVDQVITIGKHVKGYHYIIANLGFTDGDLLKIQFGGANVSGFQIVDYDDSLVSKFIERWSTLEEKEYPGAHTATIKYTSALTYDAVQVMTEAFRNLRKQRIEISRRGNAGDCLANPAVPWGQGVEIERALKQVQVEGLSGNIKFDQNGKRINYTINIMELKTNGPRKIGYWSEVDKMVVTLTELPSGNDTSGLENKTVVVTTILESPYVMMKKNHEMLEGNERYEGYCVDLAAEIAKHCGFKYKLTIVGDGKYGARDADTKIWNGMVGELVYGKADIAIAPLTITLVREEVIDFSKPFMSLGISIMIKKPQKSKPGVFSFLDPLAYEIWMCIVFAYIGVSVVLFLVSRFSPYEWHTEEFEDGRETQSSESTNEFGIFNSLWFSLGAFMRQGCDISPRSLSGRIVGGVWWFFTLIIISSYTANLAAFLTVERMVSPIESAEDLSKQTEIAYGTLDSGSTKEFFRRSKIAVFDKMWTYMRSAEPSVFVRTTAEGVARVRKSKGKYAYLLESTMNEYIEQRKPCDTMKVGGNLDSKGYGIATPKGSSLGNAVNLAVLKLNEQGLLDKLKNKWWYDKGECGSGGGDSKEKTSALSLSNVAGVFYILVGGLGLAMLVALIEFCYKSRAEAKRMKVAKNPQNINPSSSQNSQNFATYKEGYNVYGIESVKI

NCCCNCCCCNCCCNCCCNCCCNC(=O)Cc1c[nH]c2ccc(F)cc12 [Compound 4]
analgesic effect, tail flick (52° C. warm water) (thermal nociception [1]; 0.3-3 nmol i.th.): dose- and time-dependent analgesic effect | reduction in the volume of the brain infarct (permanent focal ischemia): 20% | TD50, acute motor impairment (motor performance [2]): 8 to 16 µg | reduction in the volume of the brain infarct (temporary focal ischemia): 37% | IC50 (NMDA receptor [3]; NMDA/glycine-induced increases in intracellular calcium, cultured rat cerebellar granule cells, read-out: IC50 (μM) vs. NMDA): 0.184 µM | antinociceptive effect, hot plate (thermal nociception [4]; 0.3-3 nmol i.th.): dose- and time-dependent antinociceptive effects | IC50 [5]: 89 µM | Suppression of NMDA Receptor-Mediated Synaptic Transmission (concentration which suppresses) (NMDA receptor [6]): 10 to 100 µM | reduction in neuronal death / protection in region CA1 of the hippocampus ([7]; 10 mg/kg, 7 days post-ischemia): 90% | IC50, inhibition of acetic acid-induced writhing [8]: 1 mg/kg | LTP Assay (block of the induction of LTP) (induction of LTP; at 100 μM): no block | IC50, prevention of sound-induced seizures (sound-induced seizures): 4.77 µg | reduction in the volume of the infarct (focal ischemia): 20% | Drop in Mean Arterial Blood Pressure [9]: 40 mm Hg at | Drop in Mean Arterial Blood Pressure: duration [9]: i.v., 120 min | drop in mean arterial pressure ([9]; 10 mg/kg i.p.): 40 mm Hg | persistence of the drop in mean arterial pressure ([9]; 10 mg/kg i.p.): 90 to 120 min | EC50 in the audiogenic seizure model (audiogenic seizures): 0.08 mg/kg | learning in the Morris water maze (learning [10]): impaired learning | late-phase flinching, administered after the formalin ([11]; 0.3-10 nmol i.th., 10 min after formalin): significance achieved at the 3 and 10 nmol doses | flinching behaviors, pretreatment to formalin ([11]; 0.3-10 nmol i.th., 10 min prior to formalin): effectively inhibited both early- and late-phase flinching behaviors

C[C@]12N[C@H](Cc3ccccc31)c1ccccc12 [MK-801, reference compound]
analgesic effect, tail flick (52° C. warm water) (thermal nociception [1]; 3-30 nmol): ineffective | IC50 (NMDA receptor [3]; [18]): […] | antinociceptive effect, hot plate (thermal nociception [4]; 3-30 nmol): ineffective | induction of LTP (p<0.05) (induction of LTP; slices superfused 30-60 min): significantly blocked | EC50 in the audiogenic seizure model (audiogenic seizures): 0.02 mg/kg | protection against neuronal cell loss (focal cerebral ischemia): approximately 15% | late-phase flinching, post-formalin administration ([11]; 1-30 nmol): […] | ability to make the correct choices in the T maze (learning [12]): progressively decreased the number of correct choices

CCCC(=O)N[C@@H](Cc1ccc(O)cc1)C(=O)NCCCNCCCCNCCCN [PhTX-343]
IC50 (NMDA receptors): 2.5 µM | IC50 (kainate receptors): 0.12 µM | IC50 (GluR1 [13]): 2.8 µM | IC50 (NMDAR1): 2.19 µM | IC50 (GluR1+GluR2): 270 µM

NCCCNCCCCNCCCNCCCNCCCNC(=O)Cc1c[nH]c2ccccc12 [Compound 2]
IC50 (mouse cortical neurons): 30 µM | IC50 (NMDA receptor [3]; read-out: IC50 (μM) vs. NMDA, NMDA/glycine-induced increases in intracellular calcium, cultured rat cerebellar granule cells): 0.192 µM | IC50 (NMDA receptor [3]; [18]): 0.161 µM | Suppression of NMDA Receptor-Mediated Synaptic Transmission (concentration which suppresses) (NMDA receptor [6]): 10 to 30 µM | protection against neuronal cell death (CA1 of hippocampus, striatum and neocortex) ([7]; 20 mg/kg i.p. 30 minutes after reinstating blood flow, 4 days): significantly (p<0.05) protected against neuronal cell death | protection of the striatum ([7]; doses as low as 1 mg/kg): > 98% | Drop in Mean Arterial Blood Pressure [9]: 40 mm Hg at | Drop in Mean Arterial Blood Pressure: duration [9]: i.v., 120 min | ED50 (audiogenic seizures; Mus musculus, sc, read-out: ED50 for audiogenic stimulus): 0.13 mg/kg | concentrations inhibiting depolarization-induced increases in [Ca2+]i relative to those blocking responses to NMDA (L-type calcium channel [14]): 100 fold | IC50 (L-type calcium channel [15]): 24 µM | ED50 (NMDA-induced seizures): 0.083 mg/kg | motor performance in the inverted grid assay (motor performance [16]): without effect

NCCCNCCCCNCCC(=O)NCCCCCNC(=O)[C@H](CC(N)=O)NC(=O)Cc1ccc(O)cc1O [JSTX-3]
IC50 (GluR3): 0.03 µM | IC50 (GluR1 [17]): 0.04 µM
